SMILES strings stand for the structures.

In the first assay the target is T1, MKNK2 (DKIN) (Homo sapiens, UniProt Q9HBH9).
T1 construct: (DKIN); made in house
T1 sequence (Q9HBH9 84-388 limits assumed): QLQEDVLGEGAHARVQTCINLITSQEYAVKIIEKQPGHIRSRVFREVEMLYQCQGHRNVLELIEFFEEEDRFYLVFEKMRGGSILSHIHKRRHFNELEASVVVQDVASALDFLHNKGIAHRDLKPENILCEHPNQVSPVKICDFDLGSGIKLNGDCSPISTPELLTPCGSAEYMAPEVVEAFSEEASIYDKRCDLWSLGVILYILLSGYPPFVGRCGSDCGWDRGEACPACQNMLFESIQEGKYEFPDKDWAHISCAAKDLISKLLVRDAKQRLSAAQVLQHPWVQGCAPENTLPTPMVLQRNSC
Put plainly: Binding constant (Kd) measurement, phage-displayed kinase competition binding assay: MKNK2. The note with it: Kd class symbols. From the text:
(§1) The term “ND” represents non-determined values.
A word on the Kd: it is the free concentration of one partner at which half of the binding sites on the other are occupied at equilibrium, for simple one-to-one binding. Read a high Kd as a looser complex. With `Cc1cnc(C(=O)Nc2ccc(NC(=O)Nc3cc(C(C)(C)C)on3)cc2)c(C(=O)O)n1`, the Kd lay within 1000 to 10000 nM.

Compound `CC(C)(C)c1cc(NC(=O)Nc2ccc(NC(=O)c3ccc4ncccc4c3)cc2)no1` came in with a dissociation constant Kd of 1000 to 10000 nM. Regarding `CC(C)(C)c1cc(NC(=O)Nc2ccc(NC(=O)c3cccc4nsnc34)cc2)no1`, the Kd was 1000 to 10000 nM. Same read-out and setting: the same measure for `CC(C)(C)c1cc(NC(=O)Nc2ccc(NC(=O)c3cscn3)cc2)no1`: 100 to 1000 nM.

The compound `CC(C)(C)c1cc(NC(=O)Nc2ccc(NC(=O)c3cnnc4ccccc34)cc2)no1` returned a Kd below 100 nM. `COc1cc(OC)nc(Oc2cccc(C(=O)Nc3ccc(NC(=O)Nc4cc(C(C)(C)C)on4)cc3)c2)n1` [drawing 693] yielded a Kd of 100 to 1000 nM.

Consider `CC(C)(C)c1cc(NC(=O)Nc2ccc(NC(=O)c3ncccc3O)cc2)no1` [drawing 687], for which the Kd was below 100 nM.

The compound `CC(C)(C)c1cc(NC(=O)Oc2ccc(NC(=O)c3nccnc3N)cc2)no1` displayed a Kd of 100 to 1000 nM.

Compound `CC(C)(C)c1cc(NC(=O)Nc2ccc(Nc3nc(Cl)nc4[nH]cnc34)cc2)no1` [drawing 682] came in with a Kd of 1000 to 10000 nM.

Consider `CC(C)(C)c1cc(NC(=O)Nc2ccc(Nc3nc(N)nc4[nH]cnc34)cc2)no1` [drawing 691], for which the Kd is below 100 nM.

Take `CC(C)(C)c1cc(NC(=O)Nc2ccc(Nc3ncnc4[nH]cnc34)cc2)no1` [drawing 686]: the Kd is below 100 nM.

In turn, `CC(C)(C)c1cc(NC(=O)Nc2ccc(NC(=O)c3cnc4ccccc4c3)cc2)no1` [drawing 689] returned a Kd of 1000 to 10000 nM. The compound `COc1cc2nc(Cl)nc(Nc3ccc(NC(=O)Nc4cc(C(C)(C)C)on4)cc3)c2cc1OC` [drawing 684] gave a Kd of 1000 to 10000 nM.

`Cc1cnc(C(=O)Nc2ccc(NC(=O)Nc3cc(C(C)(C)C)on3)cc2)cn1` returned a Kd of 100 to 1000 nM.

With `COc1cc2ncnc(Nc3ccc(NC(=O)Nc4cc(C(C)(C)C)on4)cc3)c2cc1OC` [drawing 692], the Kd was below 100 nM.

In the next assay the target is T2, p38-alpha(FKIN) (Homo sapiens, UniProt Q16539).
T2 construct: made in house
T2 sequence (Q16539 whole entry): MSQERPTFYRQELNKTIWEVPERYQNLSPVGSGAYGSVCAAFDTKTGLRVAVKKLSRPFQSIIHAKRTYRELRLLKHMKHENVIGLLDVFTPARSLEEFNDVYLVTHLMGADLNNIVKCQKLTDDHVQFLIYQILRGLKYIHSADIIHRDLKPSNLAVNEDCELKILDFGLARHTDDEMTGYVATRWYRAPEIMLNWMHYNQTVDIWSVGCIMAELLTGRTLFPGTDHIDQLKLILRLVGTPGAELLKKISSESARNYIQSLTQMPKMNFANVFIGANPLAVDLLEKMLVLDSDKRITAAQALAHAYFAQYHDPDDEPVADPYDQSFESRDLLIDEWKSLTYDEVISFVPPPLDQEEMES
Put plainly: Binding constant (Kd) measurement, phage-displayed kinase competition binding assay: p38. The note with it: Kd class symbols.
Description: as §1
For the compound `O=C(Nc1ccccc1)Nc1cc(Cl)c([N+](=O)O)cc1O`, the Kd fell in the range of 100 to 1000 nM. The compound `Cn1nc(C(C)(C)C)cc1NC(=O)Nc1cccc2ccccc12` had a Kd of 100 to 1000 nM. Compound `CSc1ccc(NC(=O)Nc2cc(C(C)(C)C)no2)cc1` displayed a Kd of 1000 to 10000 nM. Same read-out and setting: the figure for `CC(C)(C)c1cc(NC(=O)Nc2ccc(Cl)cc2)no1` is 1000 to 10000 nM; for `Cc1ccc(NC(=O)Nc2cc(C(C)(C)C)on2)cc1` it is 1000 to 10000 nM; for `NC(=O)c1cc(Oc2ccc(Nc3c(Nc4ccc(Cl)c(C(F)(F)F)c4)c(=O)c3=O)cc2)ccn1` it is 100 to 1000 nM.

Compound `CC(C)(C)c1cc(NC(=O)Nc2ccccc2)no1` came in with a Kd of 1000 to 10000 nM. `CC(C)(C)c1cc(NC(=O)NCc2cccc(Cl)c2)no1` registered a Kd of 100 to 1000 nM. Same read-out and setting: the figure for `CC(C)(C)c1cc(NC(=O)Nc2ccc(NC(=O)c3cnc4ccccc4c3)cc2)no1` [drawing 680] is 1000 to 10000 nM; for `Cc1ccc(-n2nc(C(C)(C)C)cc2NC(=O)Nc2ccc(O)cc2)cc1` it is 100 to 1000 nM. On to `Cc1ccc(-n2nc(C(C)(C)C)cc2NC(=O)Nc2ccc(OCc3ccccc3)cc2)cc1`, for which the Kd lay within 100 to 1000 nM. On the same count and under the same terms, the figure for `Cc1ccc(-n2nc(C(C)(C)C)cc2NC(=O)Nc2ccc(Cl)cc2)cc1` is below 100 nM; for `CC(C)(C)c1cc(NC(=O)Nc2ccc(NC(=O)c3cccnc3)cc2)no1` it is 100 to 1000 nM; for `C[S+]([O-])c1ccc(NC(=O)Nc2cc(C(C)(C)C)on2)cc1` (stereo not drawn) it is 1000 to 10000 nM.

`CC(C)(C)c1cc(NC(=O)Nc2ccc(O)cc2)no1` displayed a Kd of 1000 to 10000 nM.

Take `COc1ccc(NC(=O)Nc2cc(C(C)(C)C)on2)cc1`: the Kd fell in the range of 1000 to 10000 nM.

On to `Cc1ccc(-n2nc(C(C)(C)C)cc2NC(=O)Nc2ccc(Cl)c(C(F)(F)F)c2)cc1`, for which the Kd is 100 to 1000 nM. As for `CC(C)(C)c1cc(NC(=O)Nc2ccc(Br)cc2F)on1`, the Kd fell in the range of 100 to 1000 nM.

As for `COc1ccc(NC(=O)Nc2cc(C(C)(C)C)nn2-c2ccc(C)cc2)cc1`, the Kd lay in the range of 100 to 1000 nM.

On to `COc1ccc(NC(=O)Nc2cc(C(C)(C)C)no2)cc1`, for which the Kd is 1000 to 10000 nM.

Turning to `Cc1ccc(-n2nc(C(C)(C)C)cc2NC(=O)Nc2cc(C(C)(C)C)on2)cc1`, the Kd fell in the range of 100 to 1000 nM. In turn, `CC(C)(C)c1cc(NC(=O)Nc2ccc(OCCN3CCCCC3)c3ccccc23)no1` registered a Kd below 100 nM. The compound `CSc1ccc(NC(=O)Nc2cc(C(C)(C)C)on2)cc1` yielded a Kd of 1000 to 10000 nM. The compound `Cc1ccc(-n2nc(C(C)(C)C)cc2NC(=O)Nc2ccc(Br)cc2C(F)(F)F)cc1` had a Kd of 100 to 1000 nM. `Cc1c(Cl)cccc1NC(=O)Nc1cc(C(C)(C)C)on1` had a Kd of 100 to 1000 nM.

On to `Cc1ccc(-n2nc(C(C)(C)C)cc2NC(=O)Nc2ccc(OCCN3CCOC(CO)C3)c3ccccc23)cc1` (stereo not drawn), for which the Kd is below 100 nM. In the case of `CC(C)(C)c1cc(NC(=O)Nc2ccc(Cl)cc2)on1`, the Kd was 1000 to 10000 nM.

The target in another assay is T3, STK10(DKIN) (Homo sapiens, UniProt O94804).
T3 construct: STK10(DKIN); made in house
T3 sequence (O94804 36-294 limits assumed): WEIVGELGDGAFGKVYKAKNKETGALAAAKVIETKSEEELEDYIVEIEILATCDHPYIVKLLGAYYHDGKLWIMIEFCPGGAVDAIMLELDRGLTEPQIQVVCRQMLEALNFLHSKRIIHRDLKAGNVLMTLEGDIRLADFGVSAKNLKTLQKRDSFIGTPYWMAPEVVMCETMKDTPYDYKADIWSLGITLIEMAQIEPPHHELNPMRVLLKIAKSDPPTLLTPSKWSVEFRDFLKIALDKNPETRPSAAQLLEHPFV
Put plainly: Binding constant (Kd) measurement, phage-displayed kinase competition binding assay: STK10. The note with it: Kd class symbols.
Description: as §1
Turning to `CC(C)(C)c1cc(NC(=O)Nc2ccc(Nc3ncnc4[nH]cnc34)cc2)no1` [drawing 701], the Kd was below 100 nM. In turn, `CC(C)(C)c1cc(NC(=O)Nc2ccc(N3C(=O)c4ccccc4C3=O)cc2)no1` had a Kd below 100 nM. On to `CC(C)(C)c1cc(NC(=O)Nc2ccc(Nc3nc(N)nc4[nH]cnc34)cc2)no1` [drawing 703], for which the Kd is 100 to 1000 nM. Still for that read-out and setting: the figure for `CC(C)(C)c1cc(NC(=O)Nc2ccc(NC(=O)c3nccnc3N)cc2)no1` is 100 to 1000 nM; for `CC(C)(C)c1cc(NC(=O)Nc2ccc(NC(=O)c3ncccc3O)cc2)no1` [drawing 696] it is 100 to 1000 nM; for `CC(C)(C)c1cc(NC(=O)Nc2ccc(Nc3nc(Cl)nc4[nH]cnc34)cc2)no1` [drawing 697] it is 100 to 1000 nM. The compound `COc1cc(OC)nc(Oc2cccc(C(=O)Nc3ccc(NC(=O)Nc4cc(C(C)(C)C)on4)cc3)c2)n1` [drawing 700] gave a Kd of 1000 to 10000 nM. The compound `COc1cc2nc(Cl)nc(Nc3ccc(NC(=O)Nc4cc(C(C)(C)C)on4)cc3)c2cc1OC` [drawing 699] returned a Kd below 100 nM. `COc1cc2ncnc(Nc3ccc(NC(=O)Nc4cc(C(C)(C)C)on4)cc3)c2cc1OC` [drawing 698] showed a Kd below 100 nM.

The values are drawn from patent US20050165024A1, “Urea derivatives as kinase modulators” (Ambit Biosciences Corporation, priority 2003, published 2005).
